In publication PMC7032255 (Asian Journal of Pharmaceutical Sciences, 2018):
“Also recorded” adds a separate entry of the source. Like-named read-outs stand apart in the source and are kept apart here.

Columns and labels:
[1] = in human; parent drug versus its prodrug LY2140023; cited from earlier work
[2] = background value, no reference given; cited from earlier work
hPEPT1 = molecular target: T1, hPEPT1 (Homo sapiens, UniProt P46059); assay: Uptake by MDCK-hPEPT1 cells versus MDCK mock cells; type: cell-based; conditions: Fig. 6A
T1 sequence (P46059 1-708): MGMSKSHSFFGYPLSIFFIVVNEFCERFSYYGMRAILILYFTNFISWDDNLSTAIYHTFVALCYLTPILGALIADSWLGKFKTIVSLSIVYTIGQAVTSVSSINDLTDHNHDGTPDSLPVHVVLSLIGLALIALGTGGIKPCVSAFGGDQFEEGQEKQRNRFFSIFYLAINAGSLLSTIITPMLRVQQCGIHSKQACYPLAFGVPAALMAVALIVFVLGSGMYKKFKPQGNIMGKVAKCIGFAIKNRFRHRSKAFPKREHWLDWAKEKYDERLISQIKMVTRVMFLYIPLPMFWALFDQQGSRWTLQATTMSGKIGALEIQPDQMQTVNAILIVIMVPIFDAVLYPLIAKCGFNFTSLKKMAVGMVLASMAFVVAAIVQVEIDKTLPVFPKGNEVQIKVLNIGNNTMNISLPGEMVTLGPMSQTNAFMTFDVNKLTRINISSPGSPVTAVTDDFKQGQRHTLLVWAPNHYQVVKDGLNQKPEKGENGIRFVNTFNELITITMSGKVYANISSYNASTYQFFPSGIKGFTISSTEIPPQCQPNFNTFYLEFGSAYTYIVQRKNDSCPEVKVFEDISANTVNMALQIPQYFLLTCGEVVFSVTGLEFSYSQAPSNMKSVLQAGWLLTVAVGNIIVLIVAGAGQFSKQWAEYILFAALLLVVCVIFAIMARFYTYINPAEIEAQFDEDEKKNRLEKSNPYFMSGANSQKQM

[3] = cited from earlier work; for oral bioavailability of cytarabine: cytarabine versus its L-valyl prodrug valcytarabine
[4] = rat plasma, intravenous injection 8 mg/kg
[5] = rat plasma, oral administration, 160 mg/kg calculated as peramivir

## N[C@@]1(C(=O)O)CS(=O)(=O)[C@H]2[C@H](C(=O)O)[C@H]21 [LY404039]
[1]
  oral bioavailability of the parent drug LY404039: 6.0%

## CSCC[C@H](N)C(=O)N[C@@]1(C(=O)O)CS(=O)(=O)[C@H]2[C@H](C(=O)O)[C@H]21 [LY2140023]
[1]
  oral bioavailability of the parent drug LY404039: 68.0%

## CCC(CC)[C@H](NC(C)=O)[C@@H]1[C@H](O)[C@@H](C(=O)O)C[C@H]1N=C(N)N [Peramivir]
[2]
  log P: −1.4
[4]
  AUC0-∞ of peramivir: 3604.8 ng·h/mL
  t1/2 of peramivir: 3.9 h
[5]
  AUC0-∞ of peramivir: 2955.9 ng·h/mL
  Cmax of peramivir: 771.6 ± 278.3 ng/mL
  Tmax of peramivir: 1.0 h
  t1/2 of peramivir: 3.2 h
rat, oral 160 mg/kg calculated as peramivir versus i.v. peramivir 8 mg/kg
  F, absolute oral bioavailability of peramivir: 4.1%
hPEPT1
  PEPT1-mediated transport (uptake in MDCK-hPEPT1 versus mock cells): no PEPT1-mediated transport; also recorded: not (statistically) significant different between MDCK-hPEPT1 and MDCK mock cells
[3]; peramivir given orally, background value, reference not given
  oral bioavailability: 3%

## Nc1ccn([C@@H]2O[C@H](CO)[C@@H](O)[C@@H]2O)c(=O)n1 [cytarabine]
[3]
  oral bioavailability of cytarabine: 21.8%

## CC(C)C(N)C(=O)OCC1OC(n2ccc(N)nc2=O)C(O)C1O (centres unmarked) [valcytarabine]
[3]
  oral bioavailability of cytarabine: 60.0%
